{"source": "patent US20220387457A1", "about": "(Qlaris Bio, Inc., priority 2020, published 2022)", "experiment": "In vitro conversion of CKLP1 to levcromakalim in human ocular tissues and fluids", "assay_type": "in vitro ADME", "details": "10 μM CKLP1, 37° C.", "procedure": "Aqueous humor was collected from each eye and combined in a single 1.5-mL tube. The eyes were then bisected at the equator, and vitreous humor was collected from both eyes, combined, and placed in a 15-mL conical tube and centrifuged at 1500 rpm for 10 minutes. Following centrifugation, the upper supernatant phase (less viscous region) was isolated and placed in a 1.5-mL tube. Tubes containing aqueous and vitreous humor were stored on ice. The following tissues were dissected from the eyes: cornea, retina, optic nerve, sclera, iris, ciliary body, and trabecular meshwork. The tissue samples were placed in 1.5-mL tubes containing approximately 200 μL of 50 mM Tris buffer pH 7.1. Each sample, except for the optic nerve sample, contained tissue from both eyes. Samples were stored on ice. Tissues were independently homogenized with a Polytron PT 1200 (setting 8) and placed on ice. The trabecular meshwork was lysed using a small pestle. In between samples, the homogenizer was cleaned and washed thoroughly with a minimum of 200 mL of distilled water.\nRemaining tissue and debris were pelleted in an Eppendorf 5415C centrifuge at 13,000 rpm for 2 minutes. Supernatants were isolated and placed in clean 1.5-mL tubes. A Bradford protein assay was performed with 5 μL of supernatant of each sample. At the completion of the assay, 200-μL aliquots of each sample were placed in a 96-well plate, and protein concentrations were read using a TECAN Infinite® M200 plate reader at 595 nm. The final concentrations for all samples was 150 μg of protein in a solution of 10 μM CKLP1, except for vitreous humor, which only contained 100 μg of protein in 10 μM CKLP1 due to low protein concentration. There were 18 samples in total. Samples were mixed, briefly centrifuged and then, for each sample, a 100-μL portion was removed and placed in a new tube so that both tubes contained 100 μL (75 μg of protein each except vitreous humor, which contained 50 μg each). All pairs of samples were placed in incubation at 37° C. For each pair of tubes, one tube was incubated for 4 hours and one tube for 24 hours. At the completion of the incubation period, 200 μL of acetonitrile was added to each tube and mixed. Tubes were briefly centrifuged and placed at −80° C.", "data": [{"smiles": "CC1(C)Oc2ccc(C#N)cc2[C@@H](N2CCCC2=O)[C@@H]1OP(=O)(O)O", "note": "[CKLP1]", "values": [{"measurement": "conversion of CKLP1 to levcromakalim over 24 hours", "setting": "human aqueous humor", "result": "not"}, {"measurement": "conversion of CKLP1 to levcromakalim over 24 hours", "setting": "human ciliary body", "result": 2.6, "unit": "%"}, {"measurement": "conversion of CKLP1 to levcromakalim over 24 hours", "setting": "human cornea", "result": 0.8, "unit": "%"}, {"measurement": "conversion of CKLP1 to levcromakalim over 24 hours", "setting": "human iris", "result": 3.9, "unit": "%"}, {"measurement": "conversion of CKLP1 to levcromakalim over 24 hours", "setting": "human optic nerve", "result": 0.9, "unit": "%"}, {"measurement": "conversion of CKLP1 to levcromakalim over 24 hours", "setting": "human retina", "result": 0.7, "unit": "%"}, {"measurement": "conversion of CKLP1 to levcromakalim over 24 hours", "setting": "human sclera", "result": 1.6, "unit": "%"}, {"measurement": "conversion of CKLP1 to levcromakalim over 24 hours", "setting": "human trabecular meshwork", "result": 1.6, "unit": "%"}, {"measurement": "conversion of CKLP1 to levcromakalim over 24 hours", "setting": "human vitreous humor", "result": "not"}]}]}
